A word on the IC50: it is the concentration needed to halve the response being measured.

These results are taken from US9193699B2, “Apoptosis inducing compounds” (INSTITUT NATIONAL DE LA SANTE ET DE LA RECHERCHE MEDICALE …, priority 2011, dated 2015).

Holding throughout (assay type): cell-based
Experiment [1] relates to Human breast tumor SUM149 cells. Briefly: Inhibition of tumor cell growth (alamar blue), SUM149. Conditions: 120 h, calculated on the basis of cell growth inhibition, day 5, alamar blue, read-out: IC50 for the inhibition of SUM149 tumor cells growth. As for the experimental part:
(§1) All biological experiments (Examples 2 to 9) have been performed with recommended cell line specific culture medium. For SUM149 and L226, culture medium is supplemented with 10% Fetal Calf Serum. For HME-1 and MCF-10A, culture medium is supplemented with 5% Horse Serum.
Human breast tumor SUM149 cells (Inflammatory Breast Cancer (IBC) of basal subtype) were plated in a 96 well plate at 3000 cells/100 μL at 37° C. in 5% CO2. Compounds 1, 3, 4, 5, 6, 7, 8, 9, 10, 11, 12, 13, 14 at 10 μM were added at day 0 and day 3. The number of viable cells was determined in triplicate at day 5 by incubating 10 μL of the alamar blue staining solution for 2 hours at 37° C. (FIG. 1).
Human breast tumor SUM149 cells were plated in a 96 well plate at 3000 cells/100 μL at 37° C. in 5% CO2. Serial dilutions of drugs (compounds 1, 3 or 4) ranging from 20 μM to 300 nM were added at day 0 and day 3. The number of viable cells was determined in triplicate at day 5 by incubating 10 μL of the alamar blue staining solution for 2 hours at 37° C. (FIG. 2).
IC50 values of compounds 1-14 for the inhibition of SUM149 and L226 tumor cells growth were measured (according to the experimental procedure of Examples 2 and 3):
Human breast tumor SUM149 cells were plated in a 96 well plate at 3000 cells/100 μL at 37° C. in 5% CO2 in recommended medium containing 10% FCS or in synthetic medium without FCS. Serial dilutions of drug (compound 4) ranging from 10 μM to 0.16 μM were added at day 0 and day 3. The number of viable cells was determined in triplicate at day 5 by incubating 10 μL of the alamar blue staining solution for 2 hours at 37° C. (FIG. 11). The […] in recommended medium containing 10% FCS was measured at 2 μM, while it was measured at 0.6 μM without FCS.

In experiment [2] the test system is Human breast tumor L226 cells. Put plainly: Inhibition of tumor cell growth (alamar blue), L226. Conditions: 120 h, calculated on the basis of cell growth inhibition, day 5, alamar blue. As for the experimental part: as §1
Human breast tumor L226 cells (Inflammatory Breast Cancer (IBC) of ERB-B2 subtype) were plated in a 96 well plate at 3000 cells/100 μL at 37° C. in 5% CO2. Serial dilutions of drugs (compounds 1, 3 or 4) ranging from 20 μM to 300 nM were added at day 0 and day 3. The number of viable cells was determined in triplicate at day 5 by incubating 10 μL of the alamar blue staining solution for 2 hours at 37° C. (FIG. 3).
IC50 values of compounds 1-14 for the inhibition of SUM149 and L226 tumor cells growth were measured (according to the experimental procedure of Examples 2 and 3): […]

In experiment [3] the test system is Human normal mammary epithelial MCF-10A cells. Briefly: Effect on growth of normal cells (alamar blue), MCF-10A. Conditions: calculated on the basis of cell growth inhibition. As for the experimental part: as §1
Human normal mammary epithelial MCF-10A cells were plated in a 96 well plate at 3000 cells/100 μL at 37° C. in 5% CO2. Serial dilutions of drugs (compounds 1, 3 or 4) ranging from 20 μM to 300 nM were added at day 0 and day 3. The number of viable cells was determined in triplicate at day 5 by incubating 10 μL of the alamar blue staining solution for 2 hours at 37° C. (FIG. 5).
(§2) IC50 values of compounds 1-14 for the inhibition of MCF-10A and HME-1 normal cells growth were also measured (according to the experimental procedure of Examples 4 and 5): […]

Experiment [4] relates to Human normal mammary epithelial HME-1 cells. Briefly: Effect on growth of normal cells (alamar blue), HME-1. Conditions: HME1, calculated on the basis of cell growth inhibition. As for the experimental part: as §1
Human normal mammary epithelial HME-1 cells were plated in a 96 well plate at 3000 cells/100 μL at 37° C. in 5% CO2. Serial dilutions of drugs (compounds 1, 3 or 4) ranging from 20 μM to 300 nM were added at day 0 and day 3. The number of viable cells was determined in triplicate at day 5 by incubating 10 μL of the alamar blue staining solution for 2 hours at 37° C. (FIG. 4).
as §2

Experiment [5] deals with caspase-3 and caspase-7 in SUM149 cells. Put plainly: Caspase 3/7 activation (Caspase-Glo 3/7) in SUM149 tumor cells. The conditions noted are these: Homo sapiens, R=RLU at 20 μM/RLU at 0 μM, 24 h, read-out: Caspase 3/7 activation R (RLU fold increase from untreated cells). How it is done:
Human breast tumor SUM149 cells were plated in a 96 well plate at 10000 cells/100 μL at 37° C. in 5% CO2. Serial dilutions of drugs (compounds 1, 3 or 4) ranging from 20 μM to 300 nM were added at day 0. Active caspase-3 and caspase-7 were measured in triplicate after 24 h treatment by incubating 50 μL of the Caspase-Glo 3/7 reagent for 60 min at 25° C. This reagent containing the proluminescent tetrapeptide sequence DEVD in a cell lysis buffer (Promega) (FIG. 6).
(§3) Caspase 3/7 activation in SUM149 and L226 tumor cells was measured.
(§4) The calculated values R correspond to Relative Luminescence Units (RLU) fold increase from untreated cells (R=RLU at 20 μM/RLU at 0 μM).

Experiment [6] relates to caspase-3 and caspase-7 in L226 cells. Briefly: Caspase 3/7 activation (Caspase-Glo 3/7) in L226 tumor cells. Conditions: Homo sapiens, R=RLU at 20 μM/RLU at 0 μM, 24 h, read-out: Caspase 3/7 activation R (RLU fold increase from untreated cells). How it is done: Human breast tumor L226 cells were plated in a 96 well plate at 10000 cells/100 μL at 37° C. in 5% CO2. Serial dilutions of drugs (compounds 1, 3 or 4) ranging from 20 μM to 300 nM were added at day 0. Active caspase-3 and caspase-7 were measured in triplicate after 24 h treatment by incubating 50 μL of the Caspase-Glo 3/7 reagent for 60 min at 25° C. This reagent containing the proluminescent tetrapeptide sequence DEVD in a cell lysis buffer (Promega) (FIG. 7).
as §3, §4

The test system of experiment [7] is caspase-3 and caspase-7 in MCF-10A cells. Briefly: Caspase 3/7 activation (Caspase-Glo 3/7) in MCF-10A normal cells. Conditions: Homo sapiens, R=RLU at 20 μM/RLU at 0 μM, 24 h, read-out: Caspase 3/7 activation R (RLU fold increase from untreated cells). How it is done:
Human normal mammary epithelial MCF-10A cells were plated in a 96 well plate at 10000 cells/100 μL at 37° C. in 5% CO2. Serial dilutions of drugs (compounds 1, 3 or 4) ranging from 20 μM to 300 nM were added at day 0. Active caspase-3 and caspase-7 were measured in triplicate after 24 h treatment by incubating 50 μL of the Caspase-Glo 3/7 reagent for 60 min at 25° C. This reagent containing the proluminescent tetrapeptide sequence DEVD in a cell lysis buffer (Promega) (FIG. 9).
as §4
(§5) Caspase 3/7 activation in MCF-10A and HME-1 normal cells was also measured.

For experiment [8], the system named is caspase-3 and caspase-7 in HME-1 cells. Put plainly: Caspase 3/7 activation (Caspase-Glo 3/7) in HME-1 normal cells. The conditions noted are these: Homo sapiens, HME1, R=RLU at 20 μM/RLU at 0 μM, 24 h, read-out: Caspase 3/7 activation R (RLU fold increase from untreated cells). As for the experimental part: Human normal mammary epithelial HME-1 cells were plated in a 96 well plate at 10000 cells/100 μL at 37° C. in 5% CO2. Serial dilutions of drugs (compounds 1, 3 or 4) ranging from 20 μM to 300 nM were added at day 0. Active caspase-3 and caspase-7 were measured in triplicate after 24 h treatment by incubating 50 μL of the Caspase-Glo 3/7 reagent for 60 min at 25° C. This reagent containing the proluminescent tetrapeptide sequence DEVD in a cell lysis buffer (Promega) (FIG. 8).
as §4, §5

Regarding `CC1(C)SCCN(S(=O)(=O)c2ccccc2)[C@H]1C(=O)NO` [Compound 1, (3S)—N-hydroxy-4-(benzenesulfonyl)-2,2-dimethyl-3-thiomorpholine carboxamide], the IC50 is 20 µM in experiment [1], more than 20 µM in experiment [2], more than 20 µM in experiment [3] and more than 20 µM in experiment [4]. Moreover, the fold induction at 20 µM in experiment [5], in experiment [6], in experiment [7] and in experiment [8] was 1 throughout.
In the case of `CC1(C)SCCN(S(=O)(=O)c2ccc(CBr)cc2)[C@H]1C(=O)NO` [Compound 5, (3S)—N-hydroxy-4-[(4-bromomethylphenyl)sulfonyl]-2,2-dimethyl-3-thiomorpholine carboxamide], the IC50 in experiment [1] is 2.5 µM; in experiment [2], 20 µM; in experiment [3], more than 20 µM; in experiment [4] it was more than 20 µM. Moreover, the fold induction at 20 µM in experiment [5] turned out to be 5.5; in experiment [6] it was 3.2; in experiment [7], 1; in experiment [8] it was 1.1.
For `CC1(C)SCCN(S(=O)(=O)c2ccc(C(F)(F)F)cc2)[C@H]1C(=O)NO` [Compound 6, (3S)—N-hydroxy-4-[(4-trifluoromethylphenyl)sulfonyl]-2,2-dimethyl-3-thiomorpholine carboxamide], the IC50 in experiment [1] was 2.5 µM; in experiment [2], 5 µM; in experiment [3], more than 20 µM; in experiment [4] it was more than 20 µM. The fold induction at 20 µM came out at 5.9 in experiment [5], 2.8 in experiment [6], 1 in experiment [7] and 0.9 in experiment [8].
Consider `CC1(C)SCCN(S(=O)(=O)c2ccc(F)cc2)[C@H]1C(=O)NO` [Compound 7, (3S)—N-hydroxy-4-[(4-fluorophenyl)sulfonyl]-2,2-dimethyl-3-thiomorpholine carboxamide], for which the IC50 in experiment [1] was 20 µM.
With `CC1(C)SCCN(S(=O)(=O)CC(c2ccccc2)c2ccccc2)[C@H]1C(=O)NO` [Compound 9], the IC50 in experiment [1] is 10 µM.
As to `CCCCCCCCCCCCc1ccc(S(=O)(=O)N2CCSC(C)(C)C2C(=O)NO)cc1` [Compound 10, (3S)—N-hydroxy-4-[(4-dodecyl)phenylsulfonyl]-2,2-di methyl-3-thiomorpholine carboxamide], the IC50 was 2.5 µM in experiment [1], 3.5 µM in experiment [2], 20 µM in experiment [3] and more than 20 µM in experiment [4]. Besides, the fold induction at 20 µM was determined as 5.5 in experiment [5], 8.9 in experiment [6], 1.1 in experiment [7] and 0.8 in experiment [8].
On to `Cc1cc(C)c(S(=O)(=O)N2CCSC(C)(C)[C@@H]2C(=O)NO)c(C)c1` [Compound 11, (3S)—N-hydroxy-4-[(2,4,6-trimethylphenyl)sulfonyl]-2,2-dimethyl-3-thiomorpholine carboxamide], for which the half-maximal inhibitory concentration (IC50) in experiment [1] was 2.5 µM; in experiment [2], 2.5 µM; in experiment [3], 20 µM; in experiment [4], more than 20 µM. For the same compound, the values for the fold induction at 20 µM in experiment [5] and in experiment [6] were 6.4 and 8.7, respectively.
Turning to `CCCc1ccc(S(=O)(=O)N2CCSC(C)(C)[C@@H]2C(=O)NO)cc1` [Compound 13, (3S)—N-hydroxy-4-[(4-propylphenyl)sulfonyl]-2,2-dimethyl-3-thiomorpholine carboxamide], the IC50 in experiment [1] was 2.5 µM; in experiment [2] it was 2.5 µM; in experiment [3], more than 20 µM; in experiment [4] it was more than 20 µM. Moreover, the fold induction at 20 µM in experiment [5] came out at 5.4; in experiment [6], 5.8; in experiment [7], 1.1; in experiment [8], 1.2.
For the compound `Cc1cc(C)cc(S(=O)(=O)N2CCSC(C)(C)[C@@H]2C(=O)NO)c1` [Compound 14, (3S)—N-hydroxy-4-[(3,5-dimethylphenyl)sulfonyl]-2,2-dimethyl-3-thiomorpholine carboxamide], the IC50 in experiment [1] is 5 µM. The fold induction at 20 µM in experiment [7] and in experiment [8] was 1.1 in each case.
